We go through 1 compound from patent US5900434A, “Method for inhibiting the production of interleukin-1 or tumor necrosis factor-α by administering acanthoic acid” (Korea Institute of Science and Technology, priority 1994, dated 1999).

One assay concerns NIH3T3 fibroblasts. Nature of the assay: Inhibition of proliferation of NIH3T3 fibroblasts (3H-thymidine). It counts as cell-based. The following applies: dialyzate of monocytes/macrophages treated with 10 μg/ml acanthoic acid and silica; 5 days; FIG. 6. On the procedure:
NIH3T3 fibroblast(ATCC CRL 1658) was cultured in RPMI 1640 medium containing 10% FBS under the same conditions as described above. Acanthoic acid was added in various concentrations to 5×10^5 /ml of cells obtained in the above procedures, and the cells were precultured at 37° C. for 1 hour in 5% CO2 incubator. Then, 1 ml each of silica(100 μg/ml) and RPMI 1640 medium containing 2% FBS were added thereto and the cells were cultured under the same conditions as above for 48 hours. The culture supernatant was collected and centrifuged at 1,500 rpm for 10 minutes to remove the cells and silica. The obtained supernatant was dialyzed against PBS and filtered by 0.2 μm filtration syringe, and the filtrate was stored at -20° C. Fibrosis is caused largely by the proliferation of fibroblasts or by the synthesis of collagen. To confirm the effect of acanthoic acid on the proliferation of fibroblasts, human monocytes and macrophages were treated with 10 μg/ml of acanthoic acid and cultured according to the procedure as described in Reference Example 1 (3). The culture was dialyzed against PBS, and 50 μl of the dialyzate was added to the wells of an incubation plate. […] The amount of ^3 H-thymidine incorporated in the cell was determined by employing liquid scintillation counter(FIG. 6). […]

The test system of assay [1] is experimental silicosis in rat. Put plainly: Experimental silicosis in rat, lung histology. It is filed as in vivo, Sprague-Dawley rat. The following applies: silica 50 mg intrabronchial, 10 mg orally twice a week, 12 to 18 weeks, FIG. 9. On the procedure: For the purpose of confirming the in vivo anti-fibrogenic activity of acanthoic acid, an experimental silicosis model was established and the effect of acanthoic acid on the silicosis model when administered thereto was determined.
Silica was refined by removing any contaminant, e.g., Fe2 O3, therefrom in accordance with the method of Lugano as described in Am. J. Pathol., 109, 27-36(1982) as follows. Silica powder(Sigma, St. Louis, Mo.; the content of the particles having a diameter of 5 μm is at least 80%) was suspended in 1N HCl and the suspension was heated and washed with distilled water. The resultant was sterilized by dry heating at 200° C. for 2 hours and then used in the following experiment.
A 7 to 8 week-old male Sprague-Dawley rat and a 5-week old female ICR mouse were anesthetized by an intraperitoneal injection of 2 to 5 mg of ketamine chloride. The rat was injected into their bronchia with 50 mg of silica dissolved in 0.5 ml of sterilized PBS and the mouse was injected with 2 mg of silica dissolved in 0.1 ml of sterilized PBS, by using an 1 ml syringe. From the next day after the injection of silica, 10 mg of acanthoic acid was administered orally to the rat and mouse twice a week for a period ranging from 12 to 18 weeks. […]

The subject of assay [2] is serum glutamic-pyruvic transaminase (sGPT). Put plainly: CCl4-induced hepatocirrhosis in rat, serum GPT. It is filed as in vivo, Sprague-Dawley rat. The note with it: CCl4-treated rat; 0.2 ml orally twice a week, 13 weeks; FIG. 10. An excerpt:
(§1) Hepatocirrhosis(hepatic sclerosis) is characterized by the fibrosis of whole liver, complete disruption of liver parenchyma by fibrous septa, and formation of regenerative nodules. It is derived mostly from a chronic hepatitis or chronic alcoholism, however, the precise causes thereof are unknown. In a hepatocirrhosis patient, the amount of cytokines, e.g., TNF-α, which is involved in inflammation and fibrosis, is in an increased state; and, therefore, the inhibition of hepatocirrhosis by acanthoic acid may be determined by the inhibitory activity to TNF-α. To induce the experimental hepatocirrhosis in accordance with the method of Nakataukasa, H., et al. as described in J. Clin. Invest., 85, 1833-1843(1990), 1.0 ml/100 g of body weight of CCl4 solution(50% CCl4 +50% corn oil) was injected intraperitoneally to 4 week old male Sprague-Dawley rats twice a week, and 0.2 ml each of methanol extract of A. koreanum Nakai and acanthoic acid was administered orally at the time of the injection of CCl4 twice a week. After 13 weeks from the start of the test, each of the rats was anesthetized with ether and the blood samples were obtained from the heart to determine serum glutamic-oxaloacetic transaminase(sGOT) value and serum glutamic-pyruvic transaminase(sGPT) value(FIG. 10).

The subject of another assay is rat hepatocirrhosis. Put plainly: CCl4-induced hepatocirrhosis in rat, liver histology. It is filed as in vivo, Sprague-Dawley rat. The note with it: 0.2 ml orally twice a week, 13 weeks, FIG. 11, E = CCl4 + methanol extract, F = CCl4 + acanthoic acid.
From the text: as §1, with “10). […]” for “10).”

In the case of `C=C[C@@]1(C)CC=C2C(CCC3[C@](C)(C(=O)O)CCC[C@@]23C)C1` (single isomer, unassigned; (-)) [acanthoic acid, (-)-pimara-9(11),15-diene-19-oic acid], the proliferation of fibroblasts result in the assay on NIH3T3 fibroblasts is given as “inhibited significantly”. For the same compound, the “lung histology, granuloma and fibrosis (experimental silicosis)” value in assay [1] is “only small-sized granulomas which is not coalesce with each other and a slight fibrosis are observed”. Moreover, the “decrease of sGPT value” in assay [2] is listed as “more than 40%”. In addition, the “liver histology, effect on hepatocirrhosis” value in the assay with rat hepatocirrhosis is given as “the inhibitory effect on the hepatocirrhosis is lower than that of E”.
